Laboratory results taken from US20220202811A1, “TREATMENT FOR RETINOIC ACID RECEPTOR-RELATED ORPHAN RECEPTOR Ɣ (RORƔ)-DEPENDENT CANCERS” (The Regents of the University of California, priority 2019, published 2022).

Columns and labels:
[1] = tested on: primary patient-derived organoids; assay: compilation of primary patient-derived organoids; type: cell-based, human
[2] = tested on: primary patient-derived PDX1424 cancer cells; assay: PDX1424 xenografts in mice; type: in vivo, human
Source text: (§1) FIG. 45 is a compilation of all data from mice bearing PDX or FG cancer xenographs, including PDX1424, PDX1444, and FG.
(§2) Finally, the impact of JTE-151 was examined in vivo on mice bearing primary patient-derived pancreatic cancer xenografts (FIGS. 70-78). […] FIGS. 70-72 show 3 rounds of treatment in an experiment using mice bearing PDX1356 xenographs. The horizontal axis of the first panel in each of FIGS. 70-72 represents days of treatment, and the vertical axis represents tumor volume. The horizontal axis of each of the remaining panels represents the target (vehicle vs. JTE-151 mouse), and the vertical axis represents the specified measurement. JTE-151 was given at the regimen as specified in the figures. For example, in the first round (FIG. 70), JTE-151 was given at 90 mg/kg body weight once per day for the first 25 days, then twice per day from day 26 though day 40.
(§3) Two other primary patient-derived xenografts, PDX1535 (FIGS. 74 and 75) and PDX1424 (FIGS. 76 and 77), were tested using JTE-151 at 90 mg/kg once per day. […] Considering the reduced tumor mass and cell numbers, the absence of a significant change in tumor volume may be due to necrotic cells that remained for a while post drug treatment.

[3] = tested on: PDX1424, PDX1444, and FG cells; assay: compilation of PDX or FG xenografts, AZD-0284; type: in vivo, human
Source text: as §1

K562 cells = assay: k562 colony assay in methylcellulose; type: cell-based, human
Source text: K562 is an aggressive human leukemia cell line generated from blast crisis chronic myeloid leukemia. […] Cells were allowed to grow over the course of 8 days before the numbers of formed colonies were counted. This was used to understand the functionality of k562 cells under different conditions. Cells treated with AZD-0284 formed fewer colonies and their morphology was smaller in comparison to the vehicle-treated cells.

[4] = tested on: tumor-bearing KP^f/fC mice; assay: tumor-bearing KP^f/fC mice in vivo (AZD-0284, JTE-151); design: species or system mouse
[5] = tested on: primary patient-derived PDX204 pancreatic cancer cells; assay: PDX204 organoid assay; type: cell-based, human
Procedure: Moreover, the anti-cancer effect of JTE-151 was determined in an organoid assay using pancreatic cancer cells derived from mice bearing primary patient-derived xenografts.

PDX1535 xenograft = assay: PDX1535 xenografts in mice; type: in vivo, human; conditions: JTE-151 90 mg/kg once per day
Source text: as §2, §3

[6] = tested on: primary patient-derived xenografts; assay: compilation of primary patient-derived xenografts, JTE-151; type: in vivo, human; conditions: JTE-151 vs vehicle, compilation (FIG. 78)
Source text: as §2, §3

pancreatic cancer cell = assay: in vitro sphere formation, antagonists of Table 2; type: cell-based, mouse; conditions: extent of growth suppression relative to control
Procedure: Pancreatic tumorsphere formation assays were performed and modified from (Rovira et al., 2010). Briefly, low-passage (<6 passages) WT or REM2-KP^f/fC cell lines were infected with lentiviral particles containing shRNAs; positively infected (red) cells were sorted 72 hours after transduction. 100-300 infected cells were suspended in tumorsphere media: 100 μl DMEM F-12 (Gibco, Life Technologies) containing 1× B-27 supplement (Gibco, Life Technologies), 3% FBS, 100 μM B-mercaptoethanol (Gibco, Life Technologies), 1× non-essential amino acids (Gibco, Life Technologies), 1× N2 supplement (Gibco, Life Technologies), 20 ng/ml EGF (Gibco, Life Technologies), 20 ng/ml bFGF2 (Gibco, Life Technologies), and 10 ng/ml ESGRO mLIF (Thermo Fisher). Cells in media were plated in 96-well ultra-low adhesion culture plates (Costar) and incubated at 37° C. for 7 days. KP^f/fC in vitro tumorsphere formation studies were conducted at a minimum of n=3 independent wells per cell line across two independent shRNA of n=3 wells; however, the majority of these experiments were additionally completed in >1 independently-derived cell lines n=3, at n=3 wells per shRNA.

[7] = tested on: KP^f/fC derived flank tumors; assay: KP^f/fC flank tumors in immunocompetent mice; type: in vivo, mouse
human PDAC cells = assay: human PDAC (FG) flank tumors in immunocompromised mice; type: in vivo; conditions: compared to vehicle-treatment
Procedure: (§4) Subcutaneous tumor dimensions were measured with calipers 1-2× weekly.

[8] = tested on: primary patient derived xenografts; assay: primary patient derived xenografts, SR2211; conditions: human
Procedure: as §4

[9] = compilation of all data (FIG. 45)
[10] = especially at 90 mg/kg AZD-0284 (FIG. 44)
[11] = AZD-0284 90 mg/kg once daily + gemcitabine 25 mg/kg once weekly, 3 weeks
[12] = 30 mg/kg JTE-151 once daily for about 3 weeks (FIG. 52)
[13] = 90 mg/kg JTE-151, 3 weeks, compilation (FIG. 57)
[14] = 90 mg/kg JTE-151, 3 weeks, individual experiments (FIGS. 53-55)
[15] = JTE-151 at either 30 mg/kg or 90 mg/kg, 3 weeks (FIG. 58)
[16] = SR2211 in combination with gemcitabine

Structure (SMILES): CC(=O)N1Cc2cc(S(C)(=O)=O)ccc2[C@@H]1C(=O)Nc1ccc(C(O)(C(F)(F)F)C(F)(F)F)cc1 [AZD-0284]
- organoid growth ([1]; AZD-0284 at 3 μM and more so at 6 μM, PDX1356 and PDX1535 (FIG. 40)): significantly inhibited
- EpCam+ tumor epithelial cells ([2]; 60 mg/kg AZD-0284 for 3 weeks): significant reduction
- EpCam+/CD133+ tumor stem cells ([2]; 60 mg/kg AZD-0284 for 3 weeks): significant reduction
- EpCam+ tumor epithelial cells [3, 9]: decrease
- EpCam+/CD133+ tumor stem cells [3, 9]: decrease
- cell number [3, 9]: decrease
- EpCam+ tumor epithelial cells [3, 10]: reduced
- EpCam+/CD133+ tumor stem cells [3, 10]: reduced
- number of colonies formed (K562 cells; 1 μM, 3 μM, 5 μM, 10 μM, and 15 μM AZD-0284, 8 days): significant reduction
- colony morphology (K562 cells; in comparison to the vehicle-treated cells): smaller
- EpCam+ tumor epithelial cells ([4]; 90 mg/kg AZD-0284 alone): loss
- EpCam+/CD133+ tumor stem cells ([4]; 90 mg/kg AZD-0284 alone): loss
- cell number ([4]; 90 mg/kg AZD-0284 alone): lower
- tumor mass ([4]; 90 mg/kg AZD-0284 alone): lower
- EpCam+ tumor epithelial cells [4, 11]: loss
- EpCam+/CD133+ tumor stem cells [4, 11]: loss
- cell number [4, 11]: lower

Structure (SMILES): Cc1ccc(NC(=O)C[C@H](CCC(=O)O)c2noc([C@H]3C[C@@H](CC(C)(C)C)C3)c2C2CC2)c(Cl)c1 [JTE-151, (4S)-6-[(2-chloro-4-methylphenyl)amino]-4-{4-cyclopropyl-5-[cis-3-(2,2-dimethylpropyl)cyclobutyl]isoxazol-3-yl}-6-oxohexanoic acid]
- organoid growth ([1]; JTE-151 at 0.3 μM and more so at 3 μM, PDX1356, PDX1535, PDX202, PDX204 (FIG. 68)): significantly inhibited
- EpCam+ tumor epithelial cells ([2]; JTE-151 90 mg/kg once per day): trend of decreased
- EpCam+/CD133+ tumor stem cells ([2]; JTE-151 90 mg/kg once per day): trend of decreased
- total cell counts ([2]; JTE-151 90 mg/kg once per day): trend of decreased
- tumor mass ([2]; JTE-151 90 mg/kg once per day): trend of decreased
- tumor growth rate ([2]; JTE-151 90 mg/kg once per day (FIG. 77)): slower
- organoid growth ([5]; 3 μM JTE-151 alone): inhibited
- organoid growth ([5]; 3 μM JTE-151 in combination with 0.05 nM gemcitabine): inhibited
- EpCam+ tumor epithelial cells (PDX1535 xenograft): trend of decreased
- EpCam+/CD133+ tumor stem cells (PDX1535 xenograft): trend of decreased
- total cell counts (PDX1535 xenograft): trend of decreased
- tumor mass (PDX1535 xenograft): trend of decreased
- tumor volume or growth rate (PDX1535 xenograft): did not exhibit any significant difference
- EpCam+ tumor epithelial cells [6]: significantly reduced
- EpCam+/CD133+ tumor stem cells [6]: significantly reduced
- cell number [6]: significantly reduced
- tumor mass [6]: significantly reduced
- EpCam+ tumor epithelial cells [4, 12]: decrease in EpCam+ tumor epithelial cells was statistically significant
- cell number [4, 12]: reduced
- EpCam+ tumor epithelial cells [4, 13]: loss
- cell number [4, 13]: reduced
- EpCam+ tumor epithelial cells [4, 14]: decreased
- EpCam+/CD133+ tumor stem cells [4, 14]: decreased
- change of cell number in the tumor ([4]; 120 mg/kg JTE-151 regimen, mice that responded): varied
- tumor mass ([4]; JTE-151 at 90 mg/kg (FIG. 58)): significantly reduced
- EpCam+ tumor epithelial cells [4, 15]: loss
- cell number [4, 15]: reduced

Structure (SMILES): OC(c1ccc(-c2ccc(CN3CCN(Cc4ccncc4)CC3)cc2)c(F)c1)(C(F)(F)F)C(F)(F)F [SR2211]
- in vitro sphere formation (pancreatic cancer cell): ✓✓✓✓ (dose response observed; growth suppressed by 8-fold or more relative to control)
- depletion in CD133+ cells ([7]; SR2211 alone): 3 fold
- depletion in Msi+ cells ([7]; SR2211 alone): 3 fold
- depletion of CD133+ cells [7, 16]: 11 fold
- depletion of Msi2+ cells [7, 16]: 6 fold
- reduction in tumor growth (human PDAC cells): ~6 fold
- tumor growth in vivo [8]: marked reduction
